Source: patent US4272507A, “Phenylaminothiophenacetic acids, their synthesis, compositions and use” (priority 1978, dated 1981)
Read-outs that look alike come from different tables or passages of the source.

How the values were obtained:
[1] = test system: pain reaction provoked in rats by bending an inflamed ankle (AgNO3 arthritis); assay: animal or person; format: in vivo; conditions: for Therapeutic quotient LD50/ED50 / therapeutic quotient LD50/ED25: AgNO3 arthritis pain, LD50 7 days oral; for Therapeutic quotient LD50/ED50 / therapeutic quotient LD50/ED25 / ED50 / Inhibition of the pain reaction: rats; for ED25 / ED50: Rattus norvegicus, po; for ED25: read-out: ED25 (dose which completely suppresses the pain reaction in 25% of the animals); for ED50: perorally, at the time of maximum action, read-out: ED50 (dose which completely suppresses the pain reaction in 50% of the animals)
Method: Based on the method of HOFFMEISTER et al. [Arzneim. Forsch., 24, (1974) 600], 0.2 ml of a 1% strength silver nitrate solution is injected into the ankle joint (inside) of the right hind paw of female Sprague-Dawley rats (each animal weighing about 160 to 180 g) under ether anaesthesia. The animals are kept at 24° C. and are fed Altromin®R and water ad libitum. After the AgNO3 injection, almost all the animals (90 to 95%) can be made to cry out by moderate bending of the ankle joint. All the animals reacting positively are collected into groups of 10 animals. The compounds to be tested are administered orally in a volume of liquid of 10 ml/kg immediately after administration of the AgNO3; the untreated control animals receive the corresponding amount of tapwater.
Over a period of 4 hours after administration of the substance, the number of animals reacting is determined at half hourly intervals.
The maximum percentage of the protected animals over a period of 4 hours after administration of the substance [relative to the number of animals in the control group reacting (=100%)] serves as a measure of the analgesic action.

[2] = test system: adjuvant arthritis in rats; assay: Antiarthritic action: adjuvant arthritis in rats (Mycobacterium butyricum); conditions: for ED25: Rattus norvegicus, po, 120 h, read-out: ED25 (inhibition of adjuvant arthritis of 25%); for therapeutic quotient LD50/ED25: adjuvant arthritis, LD50 7 days oral, rats
Method: (§1) Biol. Med., 111 (1962) 544]}, on chronic inflammatory processes {Cotton pellet test on rats [Winter et al.: J. Pharmacol. exp. Therap., 141 (1963) 369]} and on adjuvant arthritis [based on the method of Perrine et al., Brit. J. Pharmacol., 21 (1963) 127] is determined.
The influence of the compounds to be tested on polyarthritis in rats caused by Mycobacterium butyricum (so-called "adjuvant arthritis") was determined using the experimental arrangement hereafter described: based on the method described by NEWBOULD and PERRINE et al. [NEWBOULD, B. B.; Brit. J. Pharmacol. 21, 127 (1963); and PERRINE, J. W. and TAKESUE, E. I.; Arch. int. Pharmacodyn., 174, 192 to 198 (1968)], so-called adjuvant arthritis, which manifests itself chiefly in a severe swelling of the tail (primary lesion) and of the paws (secondary lesion), is caused in rats by intradermal injection of a Mycobact. butyricum suspension in liquid paraffin into the base of the tail. Antiphlogistic agents inhibit this swelling reaction.

[3] = test system: carrageenin edema of the hind paw of rats; assay: Acute antiphlogistic action: carrageenin edema of the hind paw of rats after single oral administration; conditions: for ED50: Rattus norvegicus, po, read-out: ED50 (dose which causes a maximum edema inhibition of 50%); for Therapeutic quotient LD50/ED50: carrageenin edema, LD50 7 days oral; for Therapeutic quotient LD50/ED50 / Maximum inhibition of carrageenin edema within 7 hours after oral administration: rats
Method: as §1
The influence of the compounds to be tested on carrageenin edema of the hind paw of rats was determined as follows:
The rats are kept at 24° C.
The paw volume of each rat is determined (2 to 3 individual measurements in each case) before edema provocation and at hourly intervals for 7 hours after edema provacation. The average percentage paw swelling of each treated group determined at the specified times after the carrageenin injection is related to that of the untreated control group (=100%).
The maximum percentage edema inhibition serves as a measure of the antiphlogistic action.
The paw volume is determined plethysmometrically. Measuring principle: the volume of liquid displaced through the paw of the rat is recorded digitally via an electromechanical pressure transducer (Statham P 23 V, 0-200 mm Hg).
The doses indicated for the compounds tested were administered in a volume of liquid of 20 ml/kg.

[4] = in vivo; conditions: rat, po
[5] = test system: yeast-induced fever in rats; assay: Antipyretic action: yeast-induced fever in rats; format: in vivo, rats (female Sprague-Dawley); conditions: for ED (1.5 degC): Rattus norvegicus, po, read-out: ED1.5 (dose which causes a maximum reduction in yeast-induced fever of 1.5° C.)
Method: The antipyretic action is determined by the influence of the compounds to be tested on yeast-induced fever in rats.
Hyperthermia is produced in female Sprague-Dawley rats (in groups of 5 animals; weight of each animal: 160 to 180 g) by subcutaneous injection (neck) of 10 ml/kg of a 20 percent strength aqueous brewer's yeast suspension (brewer's yeast "Heliosan"/Hefereformwerk Radolfzell). 24 hours after the yeast injection, the compounds to be tested are administered orally to the animals in a volume of liquid of 5 ml/kg, and a control group receives the corresponding amount of tapwater. The feed (Altromin®R, water ad libitum) was withdrawn from the rats 18 hours beforehand. The rats are kept at about 23° C.
The body temperature is recorded 1 hour before administration of the substance and at hourly intervals after administration of the substance.
[…] The body temperature is measured with a temperature probe (Tastomed H, Braun electronic).

[6] = test system: formation of granulation tissue after subcutaneous implantation of cotton; assay: Chronic antiphlogistic action: cotton pellet test (formation of granulation tissue) in rats; conditions: rats; for Therapeutic quotient LD50/ED20: cotton pellet test, LD50 7 days oral; for Inhibition of the formation of granulation tissue after treatment for 7 days: sodium salt
Method: as §1
(§2) Experimental procedure for investigating the influence of the compounds to be tested on the formation of granulation tissue after implantation of cotton in rats (so-called cotton pellet method):
(§3) 1 cotton pellet (manufacturer: Messrs. Hartmann/Heidenheim; cotton pellets size 2, No. 4865/2) which weighs 13.0±0.5 mg and has been impregnated beforehand with 0.1 ml of a solution of 0.5 mg of penicillin G and 0.8 mg of streptomycin sulfate/1 ml of distilled water is in each case implanted subcutaneously into the shoulder-blade region, on both sides, of male Sprague-Dawley rats (groups of 8 animals each; weight of each animal: 150 to 170 g) under diethyl ether anaesthesia and under sterile conditions. The cut skin is closed by means of clamps.
(§4) The compounds to be tested (in the form of the sodium salt in aqueous solution) or the corresponding amount (5 ml/kg/day) of tapwater (=control group) are administered orally each day on seven successive days. On the eighth day, the animals are killed and the cotton granules are exposed carefully, that is to say preserving the fibrous tissue capsule, dried (15 hours at 120°) and weighed. By substracting the weight of the cotton pellets, the amount of newly formed granulation tissue is obtained.
(§5) The percentage reduction in the average granuloma dry weight of a treated group compared with the control group (=100%) serves as a measure of the antiproliferative action of a compound.

[7] = as above; conditions: rat, in vivo, po
Method: as §1, §2, §3, §4, §5

[8] = versus phenylbutazone; cited from earlier work
[9] = versus phenylbutazone; cited from earlier work; remark: listed apart in the source

COc1ccc2c(c1)c(CC(=O)O)c(C)n2C(=O)c1ccc(Cl)cc1 [Compound 2, indomethacin, reference compound]
Therapeutic quotient LD50/ED50 [1]: 0.92
therapeutic quotient LD50/ED25 [1]: 4.58
ED25 [1]: 1.2 mg/kg
ED50 [1]: 6 mg/kg
Inhibition of the pain reaction ([1]; single oral dose 1 mg/kg): 23%
Inhibition of the pain reaction ([1]; single oral dose 3 mg/kg): 36%
Inhibition of the pain reaction ([1]; single oral dose 6 mg/kg): 50%
ED25 [2]: 0.18 mg/kg/day
therapeutic quotient LD50/ED25 [2]: 30.6
ED50 [3]: 4.6 mg/kg
Therapeutic quotient LD50/ED50 [3]: 1.2
Maximum inhibition of carrageenin edema within 7 hours after oral administration ([3]; single oral dose 1.0 mg/kg): 29%
Maximum inhibition of carrageenin edema within 7 hours after oral administration ([3]; single oral dose 3.0 mg/kg): 47%
Maximum inhibition of carrageenin edema within 7 hours after oral administration ([3]; single oral dose 10.0 mg/kg): 56%
LD50 at 168 h [4]: 5.5 mg/kg
ED (1.5 degC) [5]: 5 mg/kg
Maximum reduction in yeast-induced fever over a period of 7 hours ([5]; rats, single oral dose 1 mg/kg): 0.2 °C
Maximum reduction in yeast-induced fever over a period of 7 hours ([5]; rats, single oral dose 3 mg/kg): 0.7 °C
Maximum reduction in yeast-induced fever over a period of 7 hours ([5]; rats, single oral dose 6 mg/kg): 1.8 °C
Therapeutic quotient LD50/ED20 [6]: ~ 1.8
Inhibition of the formation of granulation tissue after treatment for 7 days ([6]; 7 x 0.1 mg/kg/day orally): 7%
Inhibition of the formation of granulation tissue after treatment for 7 days ([6]; 7 x 0.3 mg/kg/day orally): 11%
Inhibition of the formation of granulation tissue after treatment for 7 days ([6]; 7 x 1.0 mg/kg/day orally): 16%
Inhibition of the formation of granulation tissue after treatment for 7 days ([6]; 7 x 3.0 mg/kg/day orally): 16%
Inhibition of the formation of granulation tissue after treatment for 7 days ([6]; 7 x 4.0 mg/kg/day orally): 17%
mortality at 168 h ([7]; 5 mg/kg/day): 25%

O=C(O)Cc1cscc1Nc1c(Cl)cccc1Cl [Compound 3, 4-(2,6-dichloroanilino)-3-thiophenacetic acid]
Therapeutic quotient LD50/ED50 [1]: 3.67
therapeutic quotient LD50/ED25 [1]: 11
ED25 [1]: 1 mg/kg
ED50 [1]: 3 mg/kg
Inhibition of the pain reaction ([1]; single oral dose 1 mg/kg): 26%
Inhibition of the pain reaction ([1]; single oral dose 3 mg/kg): 50%
Inhibition of the pain reaction ([1]; single oral dose 10 mg/kg): 62%
ED25 [2]: 0.2 mg/kg/day
therapeutic quotient LD50/ED25 [2]: 55
ED50 [3]: 1.6 mg/kg
Therapeutic quotient LD50/ED50 [3]: 6.9
Maximum inhibition of carrageenin edema within 7 hours after oral administration ([3]; single oral dose 0.3 mg/kg): 29%
Maximum inhibition of carrageenin edema within 7 hours after oral administration ([3]; single oral dose 1.0 mg/kg): 46%
Maximum inhibition of carrageenin edema within 7 hours after oral administration ([3]; single oral dose 3.0 mg/kg): 56%
LD50 at 168 h [4]: 11 mg/kg
ED (1.5 degC) ([5]; rats, perorally, single dose): 0.4 mg/kg
Maximum reduction in yeast-induced fever over a period of 7 hours ([5]; rats, single oral dose 0.03 mg/kg): 0.4 °C
Maximum reduction in yeast-induced fever over a period of 7 hours ([5]; rats, single oral dose 0.1 mg/kg): 0.8 °C
Maximum reduction in yeast-induced fever over a period of 7 hours ([5]; rats, single oral dose 0.3 mg/kg): 1.4 °C
Maximum reduction in yeast-induced fever over a period of 7 hours ([5]; rats, single oral dose 1 mg/kg): 1.7 °C
Therapeutic quotient LD50/ED20 [6]: ~ 11
Inhibition of the formation of granulation tissue after treatment for 7 days ([6]; 7 x 0.1 mg/kg/day orally): 6%
Inhibition of the formation of granulation tissue after treatment for 7 days ([6]; 7 x 0.3 mg/kg/day orally): 15%
Inhibition of the formation of granulation tissue after treatment for 7 days ([6]; 7 x 1.0 mg/kg/day orally): 14%
Inhibition of the formation of granulation tissue after treatment for 7 days ([6]; 7 x 3.0 mg/kg/day orally): 22%
Inhibition of the formation of granulation tissue after treatment for 7 days ([6]; 7 x 5.0 mg/kg/day orally): 22%
Inhibition of the formation of granulation tissue after treatment for 7 days ([6]; 7 x 6.0 mg/kg/day orally): 36%
mortality at 168 h ([7]; 6 mg/kg/day): 0%

Cc1cccc(Nc2cscc2C(=O)O)c1C [2,3-dimethylphenyl compound]
antipyretic action [8]: superior
antiphlogistic action [9]: comparable to that of phenylbutazone
